In brackets after ≈: the same amount, converted by molar mass.
Experiments:
C. krusei ATCC 6258 = test: Anti-Fungal Activity Assay (broth microtiter MIC), C. krusei; type: cell-based, Candida krusei; conditions: Pichia kudriavzevii, ATCC6258, 48 h, 3 replicates; MIC recorded at 48 h; read-out: MIC C. krusei ATCC 6258
In short: (§1)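 Plate from frozen stock onto Sabouraud dextrose agar, 35° C overnight; swab colonies into RPMI 1640+MOPS; set density via standard curves; run CLSI M27-A3 broth microdilution; score MIC visually versus growth control at 48 h, soraphen additionally at 24 h.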

[1] = tested on: C. parapsilosis ATCC 22019; test: Anti-Fungal Activity Assay (broth microtiter MIC), C. parapsilosis; type: cell-based, Candida parapsilosis; conditions: Lodderomyces parapsilosis, ATCC22019, 48 h, 3 replicates; MIC recorded at 48 h; read-out: MIC C. parapsilosis ATCC 22019
In short: as §1

Fungal ACC2 = Fungal ACC2 (UniProt Q00955); conditions: read-out: Fungal ACC2 (IC50, in vitro ACC2 inhibition)
Fungal ACC2, sequence (Q00955 whole entry): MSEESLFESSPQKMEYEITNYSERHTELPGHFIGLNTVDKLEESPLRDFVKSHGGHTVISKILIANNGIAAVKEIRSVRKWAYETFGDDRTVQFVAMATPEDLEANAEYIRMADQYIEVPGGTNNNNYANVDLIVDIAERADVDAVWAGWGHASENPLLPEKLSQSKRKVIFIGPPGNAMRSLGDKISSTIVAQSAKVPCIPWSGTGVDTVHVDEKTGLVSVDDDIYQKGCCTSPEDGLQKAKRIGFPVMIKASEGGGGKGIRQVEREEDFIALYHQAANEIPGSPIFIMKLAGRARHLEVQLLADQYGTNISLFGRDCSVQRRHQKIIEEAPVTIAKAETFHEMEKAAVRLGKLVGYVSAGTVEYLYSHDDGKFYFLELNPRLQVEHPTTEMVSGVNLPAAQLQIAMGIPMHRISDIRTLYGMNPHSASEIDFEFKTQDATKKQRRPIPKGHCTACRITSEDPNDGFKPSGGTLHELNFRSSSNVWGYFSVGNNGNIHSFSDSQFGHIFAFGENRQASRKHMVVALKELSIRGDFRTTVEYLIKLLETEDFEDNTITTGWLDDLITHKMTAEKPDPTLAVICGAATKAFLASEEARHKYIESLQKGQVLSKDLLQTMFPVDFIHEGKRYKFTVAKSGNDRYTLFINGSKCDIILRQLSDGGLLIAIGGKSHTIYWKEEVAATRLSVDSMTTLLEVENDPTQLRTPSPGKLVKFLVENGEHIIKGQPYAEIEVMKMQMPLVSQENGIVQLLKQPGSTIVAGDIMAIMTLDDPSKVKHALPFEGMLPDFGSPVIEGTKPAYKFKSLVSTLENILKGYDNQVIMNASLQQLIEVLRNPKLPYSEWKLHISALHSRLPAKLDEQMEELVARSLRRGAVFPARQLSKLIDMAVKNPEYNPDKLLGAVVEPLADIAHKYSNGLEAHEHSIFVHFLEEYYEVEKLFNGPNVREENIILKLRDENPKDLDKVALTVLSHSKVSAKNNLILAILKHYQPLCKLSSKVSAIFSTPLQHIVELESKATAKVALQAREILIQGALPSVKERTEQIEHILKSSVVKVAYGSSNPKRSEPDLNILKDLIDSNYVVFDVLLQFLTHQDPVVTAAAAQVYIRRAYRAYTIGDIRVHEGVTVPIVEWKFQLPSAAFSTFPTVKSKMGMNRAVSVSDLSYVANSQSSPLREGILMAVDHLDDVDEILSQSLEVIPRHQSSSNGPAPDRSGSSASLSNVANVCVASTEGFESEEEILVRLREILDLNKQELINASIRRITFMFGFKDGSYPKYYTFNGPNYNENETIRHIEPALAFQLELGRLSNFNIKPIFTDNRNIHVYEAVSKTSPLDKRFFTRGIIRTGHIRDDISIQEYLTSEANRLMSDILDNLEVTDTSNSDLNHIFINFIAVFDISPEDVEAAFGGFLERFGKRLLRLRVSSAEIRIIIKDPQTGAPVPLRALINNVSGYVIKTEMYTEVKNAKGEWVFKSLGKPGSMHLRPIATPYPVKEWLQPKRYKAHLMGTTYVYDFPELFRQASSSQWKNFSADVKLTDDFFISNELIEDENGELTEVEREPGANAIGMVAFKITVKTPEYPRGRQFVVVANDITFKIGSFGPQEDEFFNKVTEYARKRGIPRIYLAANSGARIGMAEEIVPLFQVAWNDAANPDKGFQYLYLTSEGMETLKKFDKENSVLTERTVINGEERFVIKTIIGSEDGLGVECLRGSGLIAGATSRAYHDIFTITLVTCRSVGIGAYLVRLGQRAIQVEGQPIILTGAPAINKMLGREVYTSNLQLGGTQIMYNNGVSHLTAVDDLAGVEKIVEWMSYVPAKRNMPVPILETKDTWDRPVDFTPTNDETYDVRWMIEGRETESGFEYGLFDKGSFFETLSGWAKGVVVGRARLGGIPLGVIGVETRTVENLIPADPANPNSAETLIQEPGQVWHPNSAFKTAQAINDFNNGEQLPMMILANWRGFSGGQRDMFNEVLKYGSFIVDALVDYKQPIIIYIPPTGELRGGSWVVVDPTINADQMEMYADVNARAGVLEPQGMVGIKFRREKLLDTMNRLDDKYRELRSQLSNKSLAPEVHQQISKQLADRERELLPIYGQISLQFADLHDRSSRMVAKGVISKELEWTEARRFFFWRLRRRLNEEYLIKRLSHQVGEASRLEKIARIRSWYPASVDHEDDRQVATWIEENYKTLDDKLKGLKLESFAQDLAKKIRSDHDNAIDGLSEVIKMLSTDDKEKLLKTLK

Human ACC2 = Human ACC2 (Homo sapiens, UniProt O00763); test: In vitro ACC2 inhibition assay (ADP-Glo), human ACC2; type: biochemical; conditions: 5 nM ACC2, 20 μM ATP, 20 μM acetyl-CoA
Human ACC2, sequence (O00763 whole entry): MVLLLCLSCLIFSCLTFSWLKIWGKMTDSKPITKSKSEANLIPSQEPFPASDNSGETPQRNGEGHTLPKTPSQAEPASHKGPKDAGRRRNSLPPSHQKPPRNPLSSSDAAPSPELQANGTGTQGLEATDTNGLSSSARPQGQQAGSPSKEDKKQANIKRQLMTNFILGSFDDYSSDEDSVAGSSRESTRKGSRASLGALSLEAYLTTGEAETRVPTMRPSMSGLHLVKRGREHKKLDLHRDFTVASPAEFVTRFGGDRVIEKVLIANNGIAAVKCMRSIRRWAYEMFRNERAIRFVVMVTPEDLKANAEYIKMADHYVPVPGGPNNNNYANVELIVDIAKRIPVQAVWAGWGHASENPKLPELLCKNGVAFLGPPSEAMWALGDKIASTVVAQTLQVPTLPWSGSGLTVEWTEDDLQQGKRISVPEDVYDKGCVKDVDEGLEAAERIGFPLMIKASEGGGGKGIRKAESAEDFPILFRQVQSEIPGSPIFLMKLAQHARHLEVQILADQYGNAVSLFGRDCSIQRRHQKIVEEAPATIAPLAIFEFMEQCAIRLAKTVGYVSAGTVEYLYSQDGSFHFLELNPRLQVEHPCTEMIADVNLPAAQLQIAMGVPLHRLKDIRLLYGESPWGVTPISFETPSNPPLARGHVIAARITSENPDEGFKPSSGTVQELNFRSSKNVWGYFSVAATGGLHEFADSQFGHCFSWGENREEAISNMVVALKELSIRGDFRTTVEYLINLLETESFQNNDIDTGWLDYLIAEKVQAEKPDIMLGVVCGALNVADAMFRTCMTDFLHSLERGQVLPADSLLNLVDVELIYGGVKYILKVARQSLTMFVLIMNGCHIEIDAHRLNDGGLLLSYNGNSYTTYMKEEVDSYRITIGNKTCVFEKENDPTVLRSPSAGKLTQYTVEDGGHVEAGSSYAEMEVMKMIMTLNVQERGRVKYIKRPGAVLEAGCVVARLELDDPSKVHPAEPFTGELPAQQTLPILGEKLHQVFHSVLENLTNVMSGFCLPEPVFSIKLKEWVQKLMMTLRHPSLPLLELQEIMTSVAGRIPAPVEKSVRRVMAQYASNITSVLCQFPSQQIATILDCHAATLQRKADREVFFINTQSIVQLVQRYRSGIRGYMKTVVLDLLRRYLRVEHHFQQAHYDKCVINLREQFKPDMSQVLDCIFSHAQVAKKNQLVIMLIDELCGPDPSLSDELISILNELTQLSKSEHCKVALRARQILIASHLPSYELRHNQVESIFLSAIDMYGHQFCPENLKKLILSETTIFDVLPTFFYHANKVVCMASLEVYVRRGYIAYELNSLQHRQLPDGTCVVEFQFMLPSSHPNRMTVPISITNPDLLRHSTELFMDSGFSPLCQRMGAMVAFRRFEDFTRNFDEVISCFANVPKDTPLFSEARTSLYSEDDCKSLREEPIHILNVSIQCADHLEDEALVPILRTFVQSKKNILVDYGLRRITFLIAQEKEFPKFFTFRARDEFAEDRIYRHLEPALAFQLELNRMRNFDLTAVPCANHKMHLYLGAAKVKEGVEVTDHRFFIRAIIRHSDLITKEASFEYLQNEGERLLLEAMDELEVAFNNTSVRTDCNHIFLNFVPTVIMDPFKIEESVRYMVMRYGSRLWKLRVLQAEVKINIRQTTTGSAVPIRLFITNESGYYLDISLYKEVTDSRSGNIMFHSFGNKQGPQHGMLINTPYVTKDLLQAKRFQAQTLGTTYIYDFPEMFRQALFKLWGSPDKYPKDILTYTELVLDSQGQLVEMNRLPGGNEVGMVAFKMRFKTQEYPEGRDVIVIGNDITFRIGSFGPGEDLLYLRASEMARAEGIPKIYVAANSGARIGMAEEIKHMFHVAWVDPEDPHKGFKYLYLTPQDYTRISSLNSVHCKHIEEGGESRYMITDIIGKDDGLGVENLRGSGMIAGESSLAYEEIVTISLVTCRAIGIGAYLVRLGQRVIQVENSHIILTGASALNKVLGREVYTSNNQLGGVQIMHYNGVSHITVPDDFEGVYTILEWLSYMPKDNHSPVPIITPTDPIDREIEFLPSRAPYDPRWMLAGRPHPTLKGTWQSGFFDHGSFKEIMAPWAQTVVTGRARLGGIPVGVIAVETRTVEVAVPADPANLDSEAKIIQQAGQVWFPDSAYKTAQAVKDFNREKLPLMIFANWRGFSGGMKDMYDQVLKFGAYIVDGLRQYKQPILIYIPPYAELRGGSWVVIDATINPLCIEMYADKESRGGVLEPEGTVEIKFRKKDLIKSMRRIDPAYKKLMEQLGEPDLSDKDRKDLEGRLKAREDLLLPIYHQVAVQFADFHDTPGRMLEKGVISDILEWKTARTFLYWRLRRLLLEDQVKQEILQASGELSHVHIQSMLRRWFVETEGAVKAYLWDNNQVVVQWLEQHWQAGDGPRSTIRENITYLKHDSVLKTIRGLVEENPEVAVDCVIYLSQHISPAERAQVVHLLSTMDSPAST

C. albicans ATCC 90028 = test: Anti-Fungal Activity Assay (broth microtiter MIC), C. albicans; type: cell-based, Candida albicans; conditions: Candida albicans, ATCC90028, 48 h, 3 replicates; MIC recorded at 48 h; read-out: MIC C. albicans ATCC 90028
In short: as §1

| SMILES | MIC (C. krusei ATCC 6258) | MIC [1] | IC50 (Fungal ACC2) | IC50 (Human ACC2) | MIC (C. albicans ATCC 90028) |
| --- | --- | --- | --- | --- | --- |
| COCCO[C@@H](Cn1c(=O)n(CCN2CCCC2=O)c(=O)c2c(C)c(-n3nccn3)sc21)c1cc(F)ccc1OC [Compound I-99, (R)-1-(2-(5-fluoro-2-methoxyphenyl)-2-(2-methoxy-ethoxy)ethyl)-5-methyl-3-(2-(2-oxopyrrolidin-1-yl)ethyl)-6-(2H-1,2,3-triazol-2-yl)thieno[2,3-d]pyrimidine-2,4(1H,3H)-dione] | 2.1 to 4 µg/mL (≈ 3.58 to 6.82 µM) | 2.1 to 4 µg/mL (≈ 3.58 to 6.82 µM) | 0.7 to 2 nM | 10 to 100 nM | 2.1 to 4 µg/mL (≈ 3.58 to 6.82 µM) |
| COCCO[C@@H](Cn1c(=O)n(CCN2CCCNC2=O)c(=O)c2c(C)c(-n3nccn3)sc21)c1cc(F)ccc1OC [Compound I-100, (R)-1-(2-(5-fluoro-2-methoxyphenyl)-2-(2-methoxy-ethoxy)ethyl)-5-methyl-3-(2-(2-oxotetrahydropyrimidin-1 (2H)-yl)ethyl)-6-(2H-1,2,3-triazol-2-yl)thieno[2,3-d]pyrimidine-2,4(1H,3H)-dione] | 2.1 to 4 µg/mL (≈ 3.49 to 6.65 µM) | 2.1 to 4 µg/mL (≈ 3.49 to 6.65 µM) | 2 to 10 nM | 10 to 100 nM | 2.1 to 4 µg/mL (≈ 3.49 to 6.65 µM) |
| COCCO[C@@H](COc1nc2sc(-n3nccn3)c(C)c2c(=O)n1[C@@H]1CCN(C(=O)C(C)C)C1)c1cc(F)ccc1OC [Compound I-101, 2-((R)-2-(5-fluoro-2-methoxyphenyl)-2-(2-methoxy-ethoxy)ethoxy)-3-((R)-1-isobutyrylpyrrolidin-3-yl)-5-methyl-6-(2H-1,2,3-triazol-2-yl)thieno[2,3-d]pyrimidin-4(3H)-one] | 2.1 to 4 µg/mL (≈ 3.42 to 6.51 µM) | 2.1 to 4 µg/mL (≈ 3.42 to 6.51 µM) | 10 to 100 nM | > 1000 nM | 2.1 to 4 µg/mL (≈ 3.42 to 6.51 µM) |
| COc1ccc(F)cc1[C@H](COc1nc2sc(-n3nccn3)c(C)c2c(=O)n1[C@H]1CNC(=O)C1)OCCO [Compound I-102, 2-((R)-2-(5-fluoro-2-methoxyphenyl)-2-(2-hydroxy-ethoxy)ethoxy)-5-methyl-3-((R)-5-oxopyrrolidin-3-yl)-6-(2H-1,2,3-triazol-2-yl)thieno[2,3-d]pyrimidin-4(3H)-one] | 2.1 to 4 µg/mL (≈ 3.86 to 7.35 µM) | 2.1 to 4 µg/mL (≈ 3.86 to 7.35 µM) | 10 to 100 nM | > 1000 nM | 2.1 to 4 µg/mL (≈ 3.86 to 7.35 µM) |
| COc1ccc(F)cc1[C@H](COc1nc2sc(-n3nccn3)c(C)c2c(=O)n1[C@@H]1CNC(=O)C1)OCCO [Compound I-103, 2-((R)-2-(5-fluoro-2-methoxyphenyl)-2-(2-hydroxy-ethoxy)ethoxy)-5-methyl-3-((S)-5-oxopyrrolidin-3-yl)-6-(2H-1,2,3-triazol-2-yl)thieno[2,3-d]pyrimidin-4(3H)-one] | 2.1 to 4 µg/mL (≈ 3.86 to 7.35 µM) | 2.1 to 4 µg/mL (≈ 3.86 to 7.35 µM) | 10 to 100 nM | > 1000 nM | 2.1 to 4 µg/mL (≈ 3.86 to 7.35 µM) |
| COCCO[C@@H](Cn1c(=O)n([C@H]2CCN(C(C)C)C2=O)c(=O)c2c(C)c(-n3nccn3)sc21)c1cc(F)ccc1OC [Compound I-104, 1-((R)-2-(5-fluoro-2-methoxyphenyl)-2-(2-methoxy-ethoxy)ethyl)-3-((S)-1-isopropyl-2-oxopyrrolidin-3-yl)-5-methyl-6-(2H-1,2,3-triazol-2-yl)thieno[2,3-d]pyrimidine-2,4(1H,3H)-dione] | 2.1 to 4 µg/mL (≈ 3.5 to 6.66 µM) | 2.1 to 4 µg/mL (≈ 3.5 to 6.66 µM) | 0.7 to 2 nM | 10 to 100 nM | 2.1 to 4 µg/mL (≈ 3.5 to 6.66 µM) |
| COCCO[C@@H](Cn1c(=O)n([C@@H]2CCN(C(C)C)C2=O)c(=O)c2c(C)c(-n3nccn3)sc21)c1cc(F)ccc1OC [Compound I-105, 1-((R)-2-(5-fluoro-2-methoxyphenyl)-2-(2-methoxy-ethoxy)ethyl)-3-((R)-1-isopropyl-2-oxopyrrolidin-3-yl)-5-methyl-6-(2H-1,2,3-triazol-2-yl)thieno[2,3-d]pyrimidine-2,4(1H,3H)-dione] | 2.1 to 4 µg/mL (≈ 3.5 to 6.66 µM) | 2.1 to 4 µg/mL (≈ 3.5 to 6.66 µM) | 2 to 10 nM | 10 to 100 nM | 2.1 to 4 µg/mL (≈ 3.5 to 6.66 µM) |
| COc1ccc(F)cc1[C@H](COc1nc2sc(-n3nccn3)c(C)c2c(=O)n1[C@@H]1CC(=O)N(C)C1)OCCO [Compound I-112, 2-((R)-2-(5-fluoro-2-methoxyphenyl)-2-(2-hydroxy-ethoxy)ethoxy)-5-methyl-3-((R)-1-methyl-5-oxopyrrolidin-3-yl)-6-(2H-1,2,3-triazol-2-yl)thieno[2,3-d]pyrimidin-4(3H)-one] | 2.1 to 4 µg/mL (≈ 3.76 to 7.16 µM) | 2.1 to 4 µg/mL (≈ 3.76 to 7.16 µM) | 10 to 100 nM | > 1000 nM | 2.1 to 4 µg/mL (≈ 3.76 to 7.16 µM) |
| COCCO[C@@H](Cn1c(=O)n([C@@]2(C)CNC(=O)C2)c(=O)c2c(C)c(-n3nccn3)sc21)c1cc(F)ccc1OC [Compound I-114, 1-((R)-2-(5-fluoro-2-methoxyphenyl)-2-(2-methoxyethoxy)ethyl)-5-methyl-3-((R)-3-methyl-5-oxopyrrolidin-3-yl)-6-(2H-1,2,3-triazol-2-yl)thieno[2,3-d]pyrimidine-2,4(1H,3H)-dione] | 2.1 to 4 µg/mL (≈ 3.67 to 6.99 µM) | 2.1 to 4 µg/mL (≈ 3.67 to 6.99 µM) | 2 to 10 nM | 10 to 100 nM | 2.1 to 4 µg/mL (≈ 3.67 to 6.99 µM) |
| COCCO[C@@H](Cn1c(=O)n([C@]2(C)CNC(=O)C2)c(=O)c2c(C)c(-n3nccn3)sc21)c1cc(F)ccc1OC [Compound I-115, 1-((R)-2-(5-fluoro-2-methoxyphenyl)-2-(2-methoxy-ethoxy)ethyl)-5-methyl-3-((S)-3-methyl-5-oxopyrrolidin-3-yl)-6-(2H-1,2,3-triazol-2-yl)thieno[2,3-d]pyrimidine-24(1H,3H)-dione] | 2.1 to 4 µg/mL (≈ 3.67 to 6.99 µM) | 2.1 to 4 µg/mL (≈ 3.67 to 6.99 µM) | 0.7 to 2 nM | 10 to 100 nM | 2.1 to 4 µg/mL (≈ 3.67 to 6.99 µM) |
| COc1ccc(F)cc1[C@H](Cn1c(=O)n([C@H]2CCCN(C)C2=O)c(=O)c2c(C)c(-n3nccn3)sc21)OCCC#N [Compound I-116, 3-((R)-1-(5-fluoro-2-methoxyphenyl)-2-(5-methyl-3-((S)-1-methyl-2-oxopiperidin-3-yl)-2,4-dioxo-6-(2H-1,2,3-triazol-2-yl)-3,4-dihydrothieno[2,3-d]pyrimidin-1(2H)-yl)ethoxy)propanenitrile] | 2.1 to 4 µg/mL (≈ 3.61 to 6.88 µM) | 2.1 to 4 µg/mL (≈ 3.61 to 6.88 µM) | 0.7 to 2 nM | 10 to 100 nM | 2.1 to 4 µg/mL (≈ 3.61 to 6.88 µM) |
| COc1ccc(F)cc1[C@H](Cn1c(=O)n([C@@H]2CCCN(C)C2=O)c(=O)c2c(C)c(-n3nccn3)sc21)OCCC#N [Compound I-117, 3-((R)-1-(5-fluoro-2-methoxyphenyl)-2-(5-methyl-3-((R)-1-methyl-2-oxopiperidin-3-yl)-2,4-dioxo-6-(2H-1,2,3-triazol-2-yl)-3,4-dihydrothieno[2,3-d]pyrimidin-1(2H)-yl)ethoxy)propanenitrile] | 2.1 to 4 µg/mL (≈ 3.61 to 6.88 µM) | 2.1 to 4 µg/mL (≈ 3.61 to 6.88 µM) | 0.7 to 2 nM | 2 to 10 nM | 2.1 to 4 µg/mL (≈ 3.61 to 6.88 µM) |
| COc1ccc(F)cc1[C@H](Cn1c(=O)n([C@@]2(C)CNC(=O)C2)c(=O)c2c(C)c(-n3nccn3)sc21)OCCO [Compound I-118, 1-((R)-2-(5-fluoro-2-methoxyphenyl)-2-(2-hydroxy-ethoxy)ethyl)-5-methyl-3-((R)-3-methyl-5-oxopyrrolidin-3-yl)-6-(2H-1,2,3-triazol-2-yl)thieno[2,3-d]pyrimidine-2,4(1H,3H)-dione] | 2.1 to 4 µg/mL (≈ 3.76 to 7.16 µM) | 2.1 to 4 µg/mL (≈ 3.76 to 7.16 µM) | 2 to 10 nM | 10 to 100 nM | 2.1 to 4 µg/mL (≈ 3.76 to 7.16 µM) |
| COc1ccc(F)cc1[C@H](Cn1c(=O)n([C@]2(C)CNC(=O)C2)c(=O)c2c(C)c(-n3nccn3)sc21)OCCO [Compound I-119, 1-((R)-2-(5-fluoro-2-methoxyphenyl)-2-(2-hydroxyethoxy)ethyl)-5-methyl-3-((S)-3-methyl-5-oxopyrrolidin-3-yl)-6-(2H-1,2,3-triazol-2-yl)thieno[2,3-d]pyrimidine-2,4(1H,3H)-dione] | 2.1 to 4 µg/mL (≈ 3.76 to 7.16 µM) | 2.1 to 4 µg/mL (≈ 3.76 to 7.16 µM) | 2 to 10 nM | 10 to 100 nM | 2.1 to 4 µg/mL (≈ 3.76 to 7.16 µM) |
| COCCO[C@@H](Cn1c(=O)n([C@]2(C)CC(=O)N(C)C2)c(=O)c2c(C)c(-n3nccn3)sc21)c1cc(F)ccc1OC [Compound I-120, 3-((R)-1,3-dimethyl-5-oxopyrrolidin-3-yl)-1-((R)-2-(5-fluoro-2-methoxyphenyl)-2-(2-methoxyethoxy)ethyl)-5-methyl-6-(2H-1,2,3-triazol-2-yl)thieno[2,3-d]pyrimidine-2,4(1H,3H)-dione] | 2.1 to 4 µg/mL (≈ 3.58 to 6.82 µM) | 2.1 to 4 µg/mL (≈ 3.58 to 6.82 µM) | 0.7 to 2 nM | 10 to 100 nM | 2.1 to 4 µg/mL (≈ 3.58 to 6.82 µM) |
| COc1ccc(F)cc1[C@H](Cn1c(=O)n([C@]2(C)CC(=O)N(C)C2)c(=O)c2c(C)c(-n3nccn3)sc21)OCCO [Compound I-121, 3-((R)-1,3-dimethyl-5-oxopyrrolidin-3-yl)-1-((R)-2-(5-fluoro-2-methoxyphenyl)-2-(2-hydroxyethoxy)ethyl)-5-methyl-6-(2H-1,2,3-triazol-2-yl)thieno[2,3-d]pyrimidine-2,4(1H,3H)-dione] | 2.1 to 4 µg/mL (≈ 3.67 to 6.99 µM) | 2.1 to 4 µg/mL (≈ 3.67 to 6.99 µM) | 0.7 to 2 nM | 10 to 100 nM | 2.1 to 4 µg/mL (≈ 3.67 to 6.99 µM) |
| COCCO[C@@H](Cn1c(=O)n([C@@]2(C)CC(=O)N(C)C2)c(=O)c2c(C)c(-n3nccn3)sc21)c1cc(F)ccc1OC [Compound I-122, 3-((S)-1,3-dimethyl-5-oxopyrrolidin-3-yl)-1-((R)-2-(5-fluoro-2-methoxyphenyl)-2-(2-methoxyethoxy)ethyl)-5-methyl-6-(2H-1,2,3-triazol-2-yl)thieno[2,3-d]pyrimidine-2.4(1H, 3H)-dione] | 2.1 to 4 µg/mL (≈ 3.58 to 6.82 µM) | 2.1 to 4 µg/mL (≈ 3.58 to 6.82 µM) | 2 to 10 nM | 10 to 100 nM | 2.1 to 4 µg/mL (≈ 3.58 to 6.82 µM) |
